Experimental data taken from ChEMBL document CHEMBL1201862, “PubChem BioAssay data set” (2004).
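Compound exposure: 48 hours, 5 concentrations, 96-well plates. GI50 = concentration required for 50% inhibition of growth.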 The source made the active and inactive calls. Cut-off read from the data, not from the text of the source: active = GI50 up to about 1.1 µM and inactive = higher.

Legend:
Assay in all cases: NCI-60 cell line screen, 48 h
[1] = tested on: U-251
[2] = tested on: DU-145
[3] = tested on: HT-29
[4] = tested on: HOP-62
[5] = tested on: SK-OV-3
[6] = tested on: NCI/ADR-RES
[7] = tested on: SW-620
[8] = tested on: OVCAR-8
[9] = tested on: T47D
[10] = tested on: OVCAR-5
[11] = tested on: NCI-H522
[12] = tested on: SK-MEL-5
[13] = tested on: SF-295
[14] = tested on: OVCAR-4
[15] = tested on: PC-3
[16] = tested on: SF-268
[17] = tested on: SK-MEL-28
[18] = tested on: SNB-75
[19] = tested on: EKVX
[20] = tested on: NCI-H460
[21] = tested on: 786-0
[22] = tested on: IGROV-1
[23] = tested on: UACC-62
[24] = tested on: HCT-15
[25] = tested on: Malme-3M
[26] = tested on: MDA-MB-435
[27] = tested on: COLO 205
[28] = tested on: A498
[29] = tested on: ACHN
[30] = tested on: CAKI-1
[31] = tested on: HCC 2998
[32] = tested on: MDA-MB-231
[33] = tested on: RXF 393
[34] = tested on: TK-10
[35] = tested on: CCRF-CEM
[36] = tested on: NCI-H23
[37] = tested on: SN12C
[38] = tested on: MDA-N
[39] = tested on: Hs-578T
[40] = tested on: MCF7
[41] = tested on: HOP-92
[42] = tested on: MOLT-4
[43] = tested on: OVCAR-3
[44] = tested on: SF-539
[45] = tested on: SNB-19
[46] = tested on: SK-MEL-2
[47] = tested on: LOX IMVI
[48] = tested on: UACC-257
[49] = tested on: K562
[50] = tested on: HL-60
[51] = tested on: A549
[52] = tested on: KM12
[53] = tested on: HCT-116
[54] = tested on: RPMI-8226
[55] = tested on: SR
[56] = tested on: NCI-H226
[57] = tested on: M14
[58] = tested on: UO-31

For `CC(C)(C)C1=C(Br)C(O)(C(C)(C)C)OP1(=O)c1ccccc1` (stereo not drawn), the GI50 [1] was > 100 µM (inactive), the GI50 [2] was > 100 µM (inactive) and the GI50 [3] was > 100 µM (inactive). The GI50 [4] was > 100 µM (inactive), the GI50 [5] was > 100 µM (inactive) and the GI50 [6] was > 100 µM (inactive). The GI50 [7] was > 100 µM (inactive), the GI50 [8] was > 100 µM (inactive) and the GI50 [9] was > 100 µM (inactive). The GI50 [10] was > 100 µM (inactive), the GI50 [11] was > 100 µM (inactive) and the GI50 [12] was > 100 µM (inactive). For the same compound, the GI50 [13] was > 100 µM (inactive), the GI50 [14] was > 100 µM (inactive) and the GI50 [15] was > 100 µM (inactive). The GI50 [16] was > 100 µM (inactive), the GI50 [17] was > 100 µM (inactive) and the GI50 [18] was > 100 µM (inactive). For the same compound, the GI50 [19] was > 100 µM (inactive), the GI50 [20] was > 100 µM (inactive) and the GI50 [21] was > 100 µM (inactive). The GI50 [22] was > 100 µM (inactive), the GI50 [23] was > 100 µM (inactive) and the GI50 [24] was > 100 µM. For the same compound, the GI50 [25] was > 100 µM (inactive), the GI50 [26] was > 100 µM (inactive) and the GI50 [27] was > 100 µM (inactive). The GI50 [28] was > 100 µM (inactive), the GI50 [29] was > 100 µM (inactive) and the GI50 [30] was > 100 µM (inactive). For the same compound, the GI50 [31] was > 100 µM (inactive), the GI50 [32] was > 100 µM (inactive) and the GI50 [33] was > 100 µM (inactive). The GI50 [34] was > 100 µM (inactive), the GI50 [35] was > 100 µM (inactive) and the GI50 [36] was > 100 µM (inactive). The GI50 [37] was > 100 µM (inactive), the GI50 [38] was > 100 µM (inactive) and the GI50 [39] was > 100 µM (inactive). For the same compound, the GI50 [40] was 0.805 µM (active), the GI50 [41] was > 100 µM (inactive) and the GI50 [42] was > 100 µM (inactive). The GI50 [43] was > 100 µM (inactive), the GI50 [44] was > 100 µM (inactive) and the GI50 [45] was > 100 µM (inactive). For the same compound, the GI50 [46] was > 100 µM (inactive), the GI50 [47] was > 100 µM (inactive) and the GI50 [48] was > 100 µM (inactive). For the same compound, the GI50 [49] was > 100 µM (inactive), the GI50 [50] was > 100 µM (inactive) and the GI50 [51] was > 100 µM (inactive). The GI50 [52] was > 100 µM (inactive).

In the case of `C[C@H](c1ccccc1)N1C(=O)[C@@H](OCc2ccccc2)[C@H]1[C@H](COC(=O)COCc1ccccc1)OCc1ccccc1`, the GI50 [1] is reported as > 100 µM (inactive), the GI50 [2] is reported as > 100 µM (inactive) and the GI50 [53] is reported as > 100 µM (inactive). For the same compound, the GI50 [4] was > 100 µM (inactive), the GI50 [5] was > 100 µM (inactive) and the GI50 [7] was > 100 µM (inactive). For the same compound, the GI50 [10] was > 100 µM (inactive), the GI50 [11] was 86.9 µM (inactive) and the GI50 [12] was 58.7 µM (inactive). For the same compound, the GI50 [13] was > 100 µM (inactive), the GI50 [15] was 77.4 µM (inactive) and the GI50 [16] was > 100 µM (inactive). The GI50 [17] was > 100 µM (inactive), the GI50 [18] was 9.08 µM (inactive) and the GI50 [19] was > 100 µM (inactive). For the same compound, the GI50 [21] was > 100 µM (inactive), the GI50 [54] was 27.9 µM (inactive) and the GI50 [22] was > 100 µM (inactive). The GI50 [23] was > 100 µM (inactive), the GI50 [24] was > 100 µM and the GI50 [25] was 11.6 µM (inactive). The GI50 [26] was 54.1 µM (inactive), the GI50 [27] was > 100 µM (inactive) and the GI50 [28] was > 100 µM (inactive). For the same compound, the GI50 [55] was > 100 µM (inactive), the GI50 [29] was > 100 µM (inactive) and the GI50 [32] was > 100 µM (inactive). The GI50 [34] was > 100 µM (inactive), the GI50 [56] was 6.95 µM (inactive) and the GI50 [35] was > 100 µM (inactive). For the same compound, the GI50 [57] was > 100 µM (inactive), the GI50 [36] was 57.3 µM (inactive) and the GI50 [37] was > 100 µM (inactive). The GI50 [38] was > 100 µM (inactive), the GI50 [39] was 60.7 µM (inactive) and the GI50 [40] was > 100 µM (inactive). For the same compound, the GI50 [41] was > 100 µM (inactive), the GI50 [42] was 67.5 µM (inactive) and the GI50 [43] was > 100 µM (inactive). For the same compound, the GI50 [45] was 37.1 µM (inactive), the GI50 [46] was > 100 µM (inactive) and the GI50 [47] was > 100 µM (inactive). For the same compound, the GI50 [49] was > 100 µM (inactive), the GI50 [58] was 7.69 µM (inactive) and the GI50 [51] was > 100 µM (inactive). The GI50 [52] was > 100 µM (inactive).
